Assay results as given in patent US20260200928A1, “THERAPEUTIC COMPOUNDS” (Sanofi, priority 2022, published 2026).

Biological target: T1, human IL-17A (Homo sapiens, UniProt Q16552)
T1 construct: purchased R&D Systems 7955-IL/CF
T1 sequence (Q16552 24-155): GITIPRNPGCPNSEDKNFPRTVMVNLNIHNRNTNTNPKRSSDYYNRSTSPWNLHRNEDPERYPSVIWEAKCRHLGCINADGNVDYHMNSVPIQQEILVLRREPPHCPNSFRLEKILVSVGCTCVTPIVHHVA
Assay: IL-17A AlphaLISA competition assay (block of IL-17A binding to its receptor IL-17RA)
Conditions: mean IC50 (n≥2), block of IL-17A binding to IL-17RA
Outline: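 Human recombinant IL-17A (7.5 nM stock) pre-incubated 30 min at RT with compound, then IL-17RA/Fc (5 nM stock) added for 90 min; AlphaLISA read with anti-Fc acceptor beads, biotinylated anti-IL-17A antibody (5 nM) and streptavidin donor beads (3 h, dark). IC50 from 4-parameter logistic fit, normalised to DMSO and 4 μM reference inhibitor; n≥2.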

Compound	IC50 [nM]
COCC(c1ccnc(NC(=O)[C@@H](NC(=O)c2nocc2C2CC2)[C@H]2CC[C@H](C)CC2)c1)N1C[C@@H](C(F)(F)F)NC1=O (single isomer, unassigned) [Example 121]	23
COC[C@H](c1ccnc(NC(=O)[C@@H](NC(=O)c2ccnn2C(C)C)C2CCC(F)(F)CC2)c1)N1C[C@@H](C(F)(F)F)NC1=O [Example 203, N-((S)-1-(4,4-difluorocyclohexyl)-2-((4-((S)-2-methoxy-1-((S)-2-oxo-4-(trifluoromethyl)imidazolidin-1-yl)ethyl)pyridin-2-yl)amino)-2-oxoethyl)-1-isopropyl-1H-pyrazole-5-carboxamide]	90
COC[C@H](c1ccnc(NC(=O)[C@H](COC(C)(C)C(F)(F)F)NC(=O)c2ccnn2C(C)C)c1)N1C[C@@H](C(F)(F)F)NC1=O [Example 272, 1-isopropyl-N-((S)-1-((4-((S)-2-methoxy-1-((S)-2-oxo-4-(trifluoromethyl)imidazolidin-1-yl)ethyl)pyridin-2-yl)amino)-1-oxo-3-((1,1,1-trifluoro-2-methylpropan-2-yl)oxy)propan-2-yl)-1H-pyrazole-5-carboxamide]	48
O=C(NC(C(=O)Nc1cc(CN2CC(C(F)(F)F)NC2=O)ccn1)C1CCC(F)CC1)c1nonc1C1CC1 [Example 292, 4-cyclopropyl-N-((S)-1-((1r,4S)-4-fluorocyclohexyl)-2-oxo-2-((4-(((S)-2-oxo-4-(trifluoromethyl)imidazolidin-1-yl)methyl)pyridin-2-yl)amino)ethyl)-1,2,5-oxadiazole-3-carboxamide]	104
COCC(c1ccnc(NC(=O)[C@@H](NC(=O)Cc2cc(C)[nH]n2)[C@H]2CC[C@H](C)CC2)c1)N1C[C@@H](C(F)(F)F)NC1=O (single isomer, unassigned) [Example 114]	82
CCc1nocc1C(=O)N[C@H](C(=O)Nc1cc(C(NC(=O)CCC(F)(F)F)C2CC2)ccn1)C(C1CC1)C1CC1 (single isomer, unassigned) [Example 44]	151
CCc1nonc1C(=O)N[C@H](C(=O)Nc1cc([C@@H](CC)N2C[C@@H](C(F)(F)F)NC2=O)ccn1)C1CCC(F)(F)CC1 [Example 209, N-((S)-1-(4,4-difluorocyclohexyl)-2-oxo-2-((4-((R)-1-((S)-2-oxo-4-(trifluoromethyl)imidazolidin-1-yl)propyl)pyridin-2-yl)amino)ethyl)-4-ethyl-1,2,5-oxadiazole-3-carboxamide]	23
CCn1nccc1C(=O)N[C@H](C(=O)Nc1cc([C@@H](COC)N2C[C@@H](C(F)(F)F)NC2=O)ccn1)C1CCC(C(F)(F)F)CC1 (stereo partly drawn) [Example 301, 1-ethyl-N-((1S)-2-((4-((S)-2-methoxy-1-((S)-2-oxo-4-(trifluoromethyl)imidazolidin-1-yl)ethyl)pyridin-2-yl)amino)-2-oxo-1-(4-(trifluoromethyl)-cyclohexyl)ethyl)-1H-pyrazole-5-carboxamide]	38
CCn1nccc1C(=O)NC(C(=O)Nc1cc(CN2CC(C(F)(F)F)NC2=O)ccn1)C1CCC(F)CC1 [Example 293, 1-ethyl-N-((S)-1-((1r,4S)-4-fluorocyclohexyl)-2-oxo-2-((4-(((S)-2-oxo-4-(trifluoromethyl)imidazolidin-1-yl)methyl)pyridin-2-yl)amino)ethyl)-1H-pyrazole-5-carboxamide]	153
[2H]C(c1ccnc(NC(=O)[C@@H](NC(=O)c2ccnn2C)[C@H]2CC[C@H](C)CC2)c1)N1C[C@@H](C(F)(F)F)NC1=O (stereo partly drawn) [Example 232, 1-Methyl-N-((1S)-1-((1r,4S)-4-methylcyclohexyl)-2-oxo-2-((4-(((S)-2-oxo-4-(trifluoromethyl)imidazolidin-1-VI)methyl-d)pyridin-2-yl)amino)ethyl)-1H-pyrazole-5-carboxamide]	53
CC(C)n1nccc1C(=O)N[C@H](C(=O)Nc1cc(CN2C[C@@H](C(F)(F)F)NC2=O)ccn1)[C@@H](C)OC(C)(C)C [Example 127, N-((2S,3R)-3-(tert-butoxy)-1-oxo-1-((4-(((S)-2-oxo-4-(trifluoromethyl)-imidazolidin-1-yl)methyl)-pyridin-2-yl)amino)butan-2-yl)-1-isopropyl-1H-pyrazole-5-carboxamide]	440
Cc1n[nH]c(C)c1Cc1ccnc(NC(=O)[C@@H](NC(=O)OC(C)(C)C)[C@H]2CC[C@H](C)CC2)c1 [Example 79, Tert-butyl ((S)-2-((4-((3,5-dimethyl-1H-pyrazol-4-yl)methyl)pyridin-2-yl)amino)-1-((1r,4S)-4-methylcyclohexyl)-2-oxoethyl)carbamate]	5270
COCC(c1ccnc(NC(=O)[C@@H](NC(=O)c2ncsc2C#N)[C@H]2CC[C@H](C)CC2)c1)N1C[C@@H](C(F)(F)F)NC1=O (single isomer, unassigned) [Example 92]	539
CC(C)(C)OC(=O)N[C@H](C(=O)Nc1cc(C(NC(=O)CCC(F)(F)F)C2CC2)ccn1)[C@H]1CC[C@H](C)CC1 (single isomer, unassigned; diastereomer 1) [Example 71]	197
Cc1cc(COC(=O)N[C@H](C(=O)Nc2cc(CN3C[C@@H](C(F)(F)F)NC3=O)ccn2)C2CCC(F)(F)CC2)no1 [Example 57, (5-Methylisoxazol-3-v)methyl ((S)-1-(4,4-difluorocyclohexyl)-2-oxo-2-((4-(((S)-2-oxo-4-(trifluoromethyl)imidazolidin-1-VI)methyl)pyridin-2-yl)amino)ethyl)carbamate]	1960
CCc1nocc1C(=O)N[C@H](C(=O)Nc1cc([C@@H](COC)N2C[C@@H](C(F)(F)F)NC2=O)ccn1)C1CCC(Cl)CC1 (stereo partly drawn) [Example 317, N-((1S)-1-(4-chlorocyclohexyl)-2-((4-((S)-2-methoxy-1-((S)-2-oxo-4-(trifluoromethyl)imidazolidin-1-yl)ethyl)pyridin-2-yl)amino)-2-oxoethyl)-3-ethylisoxazole-4-carboxamide]	19
O=C(CCC(F)(F)F)NC(c1ccnc(NC(=O)[C@@H](NC(=O)c2nonc2C2CC2)C(C2CC2)C2CC2)c1)C1CC1 (single isomer, unassigned) [Example 40]	92
COCC(c1ccnc(NC(=O)[C@@H](NC(=O)c2cnc(C)nc2C(F)(F)F)[C@H]2CC[C@H](C)CC2)c1)N1C[C@@H](C(F)(F)F)NC1=O (mixture of isomers) [Example 90, N-((1S)-2-((4-(2-methoxy-1-((RS)-2-oxo-4-(trifluoromethyl)imidazolidin-1-yl)ethyl)pyridin-2-yl)amino)-1-((1r,4S)-4-methylcyclohexyl)-2-oxoethyl)-2-methyl-4-(trifluoromethyl)pyrimidine-5-carboxamide]	4520
CC(C)n1nccc1C(=O)N[C@H](C(=O)Nc1cc(O[C@@H]2C[C@@H](C(F)(F)F)NC2=O)ccn1)[C@H]1CC[C@H](C)CC1 [Example 323, 1-isopropyl-N—((S)-1-((1r,4S)-4-methylcyclohexyl)-2-oxo-2-((4-(((3R,5S)-2-oxo-5-(trifluoromethyl)pyrrolidin-3-yl)oxy)pyridin-2-yl)amino)ethyl)-1H-pyrazole-5-carboxamide]	1210
CCn1nccc1C(=O)N[C@H](C(=O)Nc1cc(C(C)(C)N2C[C@@H](C(F)(F)F)NC2=O)ccn1)C1CCC(F)(F)CC1 [Example 174, N-((S)-1-(4,4-difluorocyclohexyl)-2-oxo-2-((4-(2-((S)-2-oxo-4-(trifluoromethyl)imidazolidin-1-yl)propan-2-yl)pyridin-2-yl)amino)ethyl)-1-ethyl-1H-pyrazole-5-carboxamide]	362
